Data taken from patent US12162893B2 (Erasca, Inc., priority 2020, dated 2024).

Molecular target: T1, mutant G12C K-RAS (Homo sapiens, UniProt P01116, G12C)
T1 construct: made in house; host or cells: E. coli BL21
Test: covalent adduct formation (CAF) with mutant G12C K-RAS
Type: binding
Details: for % CAF @ 10 μM,1 h: Table 6; for % CAF (60 min): after 60 minutes at 10 micromolar
Experimental: Embodiments disclosed herein are further illustrated by the following examples in Tables 1-4 and the Examples hereinbelow. The Tables indicate the compound number, structure, the observed mass spectral molecular weight peak, and covalent adduct formation (CAF) with a mutant G12C K-RAS after 60 minutes at a concentration of 10 micromolar.

% CAF @ 10 μM,1 h [%] | also measured | Compound
82.1 | – | C=CC(=O)N1C[C@H](C)N(c2nc(=O)n3c4c(c(-c5c(O)cccc5F)c(Cl)cc24)OC[C@@H]3CN(C)CC(F)(F)F)C[C@H]1C (atropisomer, axis not shown) [Example 240, (3S,10S)-7-((2S,5R)-4-acryloyl-2,5-dimethylpiperazin-1-yl)-9-chloro-10-(2-fluoro-6-hydroxyphenyl)-3-((methyl(2,2,2-trifluoroethyl)amino)methyl)-2H-[1,4]oxazino[2,3,4-ij]quinazolin-5(3H)-one]
– | % CAF (60 min) (Table 1, Pyrimidone Core-Morpholine Unsubstituted): 72.6% | C=CC(=O)N1CCN(c2nc(=O)n3c4c(c(-c5c(C)ccc6[nH]nc(C)c56)c(Cl)cc24)OCC3)CC1 [Example 9, 7-(4-acryloylpiperazin-1-yl)-9-chloro-10-(3,5-dimethyl-1H-indazol-4-yl)-2H-[1,4]oxazino[2,3,4-ij]quinazolin-5(3H)-one]
– | % CAF (60 min) (Table 2, Pyrimidone Core-Morpholine Substituted): 0% | C=CC(=O)N1CCN(c2nc(=O)n3c4c(c(-c5c(O)cccc5F)c(Cl)cc24)OC[C@H]3CO)[C@@H](C)C1 [Example 23, (3R,10R)-7-((S)-4-acryloyl-2-methylpiperazin-1-yl)-9-chloro-10-(2-fluoro-6-hydroxyphenyl)-3-(hydroxymethyl)-2H-[1,4]oxazino[2,3,4-ij]quinazolin-5(3H)-one]
94.4 | – | C=CC(=O)N1C[C@H](C)N(c2nc(=O)n3c4c(c(-c5cccc6ccccc56)c(Cl)cc24)OC[C@@H]3CN2CCN(C)CC2)C[C@H]1C (atropisomer, axis not shown) [Example 309, (3S,10R)-7-((2S,5R)-4-acryloyl-2,5-dimethylpiperazin-1-yl)-9-chloro-3-((4-methylpiperazin-1-yl)methyl)-10-(naphthalen-1-yl)-2,3-dihydro-5H-[1,4]oxazino[2,3,4-ij]quinazolin-5-one]
74.8 | – | C=CC(=O)N1C[C@H](C)N(c2nc(=O)n3c4c(c(-c5c(O)cccc5F)c(Cl)cc24)OC[C@@H]3CN2CCN(C)CC2)C[C@H]1C (atropisomer, axis not shown) [Example 314, (3S,10S)-7-((2S,5R)-4-acryloyl-2,5-dimethylpiperazin-1-yl)-9-chloro-10-(2-fluoro-6-hydroxyphenyl)-3-((4-methylpiperazin-1-yl)methyl)-2,3-dihydro-5H-[1,4]oxazino[2,3,4-ij]quinazolin-5-one]
68.2 | – | C=CC(=O)N1C[C@H](C)N(c2nc(=O)n3c4c(c(-c5ccc(F)cc5F)c(Cl)cc24)OC[C@H]3CCCN2CC3CCC(C2)O3)C[C@H]1C [Example 312, (3R)-3-(3-(8-oxa-3-azabicyclo[3.2.1]octan-3-yl)propyl)-7-((2S,5R)-4-acryloyl-2,5-dimethylpiperazin-1-yl)-9-chloro-10-(2,4-difluorophenyl)-2,3-dihydro-5H-[1,4]oxazino[2,3,4-ij]quinazolin-5-one]
59.8 | – | C=CC(=O)N1C[C@H](C)N(c2nc(=O)n3c4c(c(-c5cc(Cl)ccc5F)c(Cl)cc24)OC[C@H]3CN2CCOCC2)C[C@H]1C [Example 212, (3R)-7-((2S,5R)-4-acryloyl-2,5-dimethylpiperazin-1-yl)-9-chloro-10-(5-chloro-2-fluorophenyl)-3-(morpholinomethyl)-2H-[1,4]oxazino[2,3,4-ij]quinazolin-5(3H)-one]
87 | – | C=CC(=O)N1C[C@H](C)N(c2nc(=O)n3c4c(c(-c5ccc(F)cc5F)c(Cl)cc24)OC[C@H]3CC2CCN(CC(F)F)CC2)C[C@H]1C [Example 328, (3R)-7-((2S,5R)-4-acryloyl-2,5-dimethylpiperazin-1-yl)-9-chloro-3-((1-(2,2-difluoroethyl)piperidin-4-yl)methyl)-10-(2,4-difluorophenyl)-2H-[1,4]oxazino[2,3,4-ij]quinazolin-5(3H)-one]
94.2 | – | C=CC(=O)N1C[C@H](C)N(c2nc(=O)n3c4c(c(-c5c(C)ccc6[nH]ncc56)c(Cl)cc24)OC[C@H]3CCCN2C[C@@H]3C[C@H]2CO3)C[C@H]1C (atropisomer, axis not shown) [Example 326, (3R,10R)-3-(3-((1S,4S)-2-oxa-5-azabicyclo[2.2.1]heptan-5-yl)propyl)-7-((2S,5R)-4-acryloyl-2,5-dimethylpiperazin-1-yl)-9-chloro-10-(5-methyl-1H-indazol-4-yl)-2,3-dihydro-5H-[1,4]oxazino[2,3,4-ij]quinazolin-5-one]
71.3 | – | C=CC(=O)N1C[C@H](C)N(c2nc(=O)n3c4c(c(-c5ccc(F)cc5F)c(Cl)cc24)OC[C@H]3Cn2cccn2)C[C@H]1C [Example 234, (3R)-3-((1H-pyrazol-1-yl)methyl)-7-((2S,5R)-4-acryloyl-2,5-dimethylpiperazin-1-yl)-9-chloro-10-(2,4-difluorophenyl)-2H-[1,4]oxazino[2,3,4-ij]quinazolin-5(3H)-one]
0 | – | C=CC(=O)N1C[C@H](C)N(c2nc(=O)n3c4c(c(-c5c(O)cccc5F)c(Cl)cc24)OC[C@@H]3CN2CCC(F)(F)C2)C[C@H]1C [Example 220, (3S,10R)-7-((2S,5R)-4-acryloyl-2,5-dimethylpiperazin-1-yl)-9-chloro-3-((3,3-difluoropyrrolidin-1-yl)methyl)-10-(2-fluoro-6-hydroxyphenyl)-2,3-dihydro-5H-[1,4]oxazino[2,3,4-ij]quinazolin-5-one]
79.4 | – | C=CC(=O)N1C[C@H](C)N(c2nc(=O)n3c4c(c(-c5ccc(F)cc5F)c(Cl)cc24)OC[C@@H]3Cn2ccnc2)C[C@H]1C [Example 238, (3S)-3-((1H-imidazol-1-yl)methyl)-7-((2S,5R)-4-acryloyl-2,5-dimethylpiperazin-1-yl)-9-chloro-10-(2,4-difluorophenyl)-2H-[1,4]oxazino[2,3,4-ij]quinazolin-5(3H)-one]
45.8 | – | C=CC(=O)N1C[C@H](C)N(c2nc(=O)n3c4c(c(-c5ccc(F)cc5F)c(Cl)cc24)OC[C@H]3CO[C@@H]2CCN(C)C2)C[C@H]1C [Example 302, (3R)-7-((2S,5R)-4-acryloyl-2,5-dimethylpiperazin-1-yl)-9-chloro-10-(2,4-difluorophenyl)-3-((((R)-1-methylpyrrolidin-3-yl)oxy)methyl)-2,3-dihydro-5H-[1,4]oxazino[2,3,4-ij]quinazolin-5-one]
41.6 | – | C=CC(=O)N1C[C@H](C)N(c2nc(=O)n3c4c(c(-c5ccc(F)cc5F)c(Cl)cc24)O[C@@H](CCCN2CCN(C)CC2)C3)C[C@H]1C [Example 263, (2S)-7-((2S,5R)-4-acryloyl-2,5-dimethylpiperazin-1-yl)-9-chloro-10-(2,4-difluorophenyl)-2-(3-(4-methylpiperazin-1-yl)propyl)-2,3-dihydro-5H-[1,4]oxazino[2,3,4-ij]quinazolin-5-one]
58.4 | – | C=CC(=O)N1C[C@H](C)N(c2nc(=O)n3c4c(c(-c5cccc6ccccc56)c(Cl)cc24)OC[C@H]3CN2CCN(C)CC2)C[C@H]1C (atropisomer, axis not shown) [Example 295, (3R,10R)-7-((2S,5R)-4-acryloyl-2,5-dimethylpiperazin-1-yl)-9-chloro-3-((4-methylpiperazin-1-yl)methyl)-10-(naphthalen-1-yl)-2H-[1,4]oxazino[2,3,4-ij]quinazolin-5(3H)-one]
